Experimental data published in patent publication US8658566B2, “Composition and method for controlling plant diseases” (Sumitomo Chemical Company, Limited, priority 2009, dated 2014).

Tested on: Pythium damping-off pathogen (Pythium irregulare)
Test: Cucumber seed treatment test against Pythium damping-off (Test Example 1)
Format: in vivo
Settings: cucumber (Sagamihanjiro) seed treatment, 20° C., 8 days
Description: A DMSO solution of the compound I and a DMSO solution of ethaboxam were respectively prepared. These solutions were mixed to prepare a DMSO solution containing predetermined concentrations of the compound I and ethaboxam. Ten (10) μL of the DMSO solution and 1 g of cucumber (Sagamihanjiro) seeds were mixed by shaking in a 15-ml conical tube and then allowed to stand overnight to prepare treated seeds. A plastic pot was filled with sandy soil and the treated seeds were sown on it and then covered with sandy soil which had been mixed with a bran culture of Pythium damping-off pathogen (Pythium irregulare). The sown seeds were watered and then cultured in a cultivation room at 20° C. for 8 days. The occurrence of Pythium damping-off diseases was checked and the incidence of disease was calculated by Equation 1.
For comparison, a DMSO solution containing a predetermined concentration of ethaboxam was prepared and subjected to the same test and then the incidence of disease was determined.
In order to calculate a control value, the same test was conducted in which the plants had been treated with none of the test compounds and the incidence of disease was determined.
The control value was calculated by the Equation 2 based on the incidence of disease thus determined. […]

Compound: CCNc1nc(CC)c(C(=O)NC(C#N)c2cccs2)s1 (centres unmarked) [Ethaboxam]
- Control value (ethaboxam 2 g/100 kg seeds alone (compound I 0)): 43
- Control value (ethaboxam 10 g/100 kg seeds alone (compound I 0)): 64
